Experimental findings from patent EP1831198B1, “PYRIDINE CARBOXAMIDE DERIVATIVES FOR USE AS ANTICANCER AGENTS” (AstraZeneca AB, priority 2004, dated 2006) are described below.

For this experiment, the target named is human recombinant, purified wild type His-B-Raf protein kinase (Homo sapiens, UniProt P15056). As to the kind of experiment: B-Raf in vitro ELISA assay. It is filed as biochemical. The following applies: phosphorylation of MEK1; 2.5 nM B-Raf, 0.15 µM MEK1, 10 µM ATP. The text has this:
Data was graphed and IC50s calculated using Excel Fit (Microsoft).

human recombinant, purified wild type His-B-Raf protein kinase, sequence (P15056 whole entry): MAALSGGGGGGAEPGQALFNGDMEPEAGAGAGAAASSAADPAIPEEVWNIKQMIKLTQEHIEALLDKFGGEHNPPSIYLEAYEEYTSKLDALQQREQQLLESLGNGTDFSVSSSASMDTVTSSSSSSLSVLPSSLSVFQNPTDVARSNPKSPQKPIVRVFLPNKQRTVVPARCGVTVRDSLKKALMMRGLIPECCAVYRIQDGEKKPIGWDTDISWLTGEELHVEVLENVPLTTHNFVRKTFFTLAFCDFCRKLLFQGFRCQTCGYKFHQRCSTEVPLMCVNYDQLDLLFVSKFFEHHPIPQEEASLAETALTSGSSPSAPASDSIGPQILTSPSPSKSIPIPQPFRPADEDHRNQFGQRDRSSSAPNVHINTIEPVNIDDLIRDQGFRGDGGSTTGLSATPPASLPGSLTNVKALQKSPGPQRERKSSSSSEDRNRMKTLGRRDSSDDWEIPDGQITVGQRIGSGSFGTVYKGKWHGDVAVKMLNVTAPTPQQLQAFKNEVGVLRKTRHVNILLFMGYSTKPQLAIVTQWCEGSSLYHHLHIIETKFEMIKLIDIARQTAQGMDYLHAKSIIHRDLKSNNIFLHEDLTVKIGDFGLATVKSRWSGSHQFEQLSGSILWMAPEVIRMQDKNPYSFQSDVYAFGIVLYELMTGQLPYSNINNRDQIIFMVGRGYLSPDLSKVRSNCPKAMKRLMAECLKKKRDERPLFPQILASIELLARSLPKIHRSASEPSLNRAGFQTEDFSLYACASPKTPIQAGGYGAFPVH

Turning to `Cc1ccc(NC(=O)c2cccc3c2OCC3)cc1C(=O)Nc1cccnc1` [Example 9, N-{4-Methyl-3-[(pyridin-3-ylamino)carbonyl]phenyl}-2,3-dihydro-1-benzofuran-7-carboxamide], the IC50 was 1080 nM.
